Reference: ChEMBL document CHEMBL1201862, “PubChem BioAssay data set” (2004)
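Test compounds were applied to cells in 96-well plates for 48 hours at 5 doses. Abbreviation: GI50, concentration required for 50% inhibition of growth.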 Activity calls are given as the source filed them. Cut-off read from the data, not from the text of the source: active = GI50 up to about 1.1 µM and inactive = higher.

Columns and labels:
Assay in all cases: inhibition of tumour cell growth, NCI panel, 48 h
786-0 = tested on: 786-0
BT-549 = tested on: BT-549
CCRF-CEM = tested on: CCRF-CEM
EKVX = tested on: EKVX
HL-60 = tested on: HL-60
HOP-62 = tested on: HOP-62
IGROV-1 = tested on: IGROV-1
K562 = tested on: K562
LOX IMVI = tested on: LOX IMVI
M14 = tested on: M14
MCF7 = tested on: MCF7
MDA-MB-435 = tested on: MDA-MB-435
MOLT-4 = tested on: MOLT-4
Malme-3M = tested on: Malme-3M
NCI-H226 = tested on: NCI-H226
NCI-H23 = tested on: NCI-H23
NCI-H460 = tested on: NCI-H460
NCI-H522 = tested on: NCI-H522
NCI/ADR-RES = tested on: NCI/ADR-RES
OVCAR-3 = tested on: OVCAR-3
OVCAR-4 = tested on: OVCAR-4
OVCAR-5 = tested on: OVCAR-5
OVCAR-8 = tested on: OVCAR-8
RXF 393 = tested on: RXF 393
SF-268 = tested on: SF-268
SF-295 = tested on: SF-295
SF-539 = tested on: SF-539
SK-MEL-28 = tested on: SK-MEL-28
SK-MEL-2 = tested on: SK-MEL-2
SK-MEL-5 = tested on: SK-MEL-5
SN12C = tested on: SN12C
SNB-19 = tested on: SNB-19
SR = tested on: SR
SW-620 = tested on: SW-620
TK-10 = tested on: TK-10
U-251 = tested on: U-251
UACC-62 = tested on: UACC-62
UO-31 = tested on: UO-31
A498 = tested on: A498
A549 = tested on: A549
ACHN = tested on: ACHN
CAKI-1 = tested on: CAKI-1
COLO 205 = tested on: COLO 205
DU-145 = tested on: DU-145
HCC 2998 = tested on: HCC 2998
HCT-116 = tested on: HCT-116
HCT-15 = tested on: HCT-15
HOP-92 = tested on: HOP-92
HT-29 = tested on: HT-29
Hs-578T = tested on: Hs-578T
KM12 = tested on: KM12
MDA-MB-231 = tested on: MDA-MB-231
MDA-N = tested on: MDA-N
PC-3 = tested on: PC-3
RPMI-8226 = tested on: RPMI-8226
SK-OV-3 = tested on: SK-OV-3
SNB-75 = tested on: SNB-75
T47D = tested on: T47D
UACC-257 = tested on: UACC-257

C/C=C1\NC(=O)[C@H](Cc2ccccc2)NC(=O)[C@@H](C(C)C)NC(=O)[C@@H]([C@@H](C)CC)NC(=O)[C@H](NC(=O)[C@H](NC(=O)[C@H](CCCN)NC(=O)[C@H]2CCCN2C(=O)[C@H](NC(=O)[C@@H](NC(=O)[C@@H](NC(=O)[C@H](NC(=O)CCCC(C)C)C(C)C)[C@@H](C)O)C(C)C)C(C)C)[C@@H](C)CC)[C@@H](C)OC(=O)[C@H](C(C)C)NC1=O
GI50 (786-0): 1.74 µM (inactive)
GI50 (BT-549): 3.44 µM (inactive)
GI50 (CCRF-CEM): 2.86 µM (inactive)
GI50 (EKVX): 0.265 µM (active)
GI50 (HL-60): 39.4 µM (inactive)
GI50 (HOP-62): 1.76 µM (inactive)
GI50 (IGROV-1): 1.44 µM (inactive)
GI50 (K562): 3.59 µM (inactive)
GI50 (LOX IMVI): 3.64 µM (inactive)
GI50 (M14): 1.38 µM (inactive)
GI50 (MCF7): 0.461 µM (active)
GI50 (MDA-MB-435): 1.14 µM (inactive)
GI50 (MOLT-4): 12.1 µM (inactive)
GI50 (Malme-3M): 2 µM (inactive)
GI50 (NCI-H226): 2.23 µM (inactive)
GI50 (NCI-H23): 4.2 µM (inactive)
GI50 (NCI-H460): 1.52 µM (inactive)
GI50 (NCI-H522): 3.71 µM (inactive)
GI50 (NCI/ADR-RES): 3.04 µM (inactive)
GI50 (OVCAR-3): 1.36 µM (inactive)
GI50 (OVCAR-4): 0.863 µM (active)
GI50 (OVCAR-5): 1.63 µM (inactive)
GI50 (OVCAR-8): 4.63 µM (inactive)
GI50 (RXF 393): 3.1 µM (inactive)
GI50 (SF-268): 1.42 µM (inactive)
GI50 (SF-295): 1.69 µM (inactive)
GI50 (SF-539): 1.69 µM (inactive)
GI50 (SK-MEL-28): 1.5 µM (inactive)
GI50 (SK-MEL-2): 2.31 µM (inactive)
GI50 (SK-MEL-5): 0.456 µM (active)
GI50 (SN12C): 2.64 µM (inactive)
GI50 (SNB-19): 0.347 µM (active)
GI50 (SR): 14.4 µM (inactive)
GI50 (SW-620): 0.344 µM (active)
GI50 (TK-10): 1.85 µM (inactive)
GI50 (U-251): 0.344 µM (active)
GI50 (UACC-62): 1.42 µM (inactive)
GI50 (UO-31): 2.1 µM (inactive)

CCCCCc1c(Cl)nc(Cl)nc1Cl
GI50 (786-0): 3.67 µM (inactive)
GI50 (A498): 20.1 µM (inactive)
GI50 (A549): 39.7 µM (inactive)
GI50 (ACHN): 21 µM (inactive)
GI50 (CAKI-1): 2.88 µM (inactive)
GI50 (CCRF-CEM): 0.195 µM (active)
GI50 (COLO 205): 7.85 µM (inactive)
GI50 (DU-145): 21.7 µM (inactive)
GI50 (EKVX): 22.5 µM (inactive)
GI50 (HCC 2998): 11.1 µM (inactive)
GI50 (HCT-116): 3.82 µM (inactive)
GI50 (HCT-15): 6.17 µM
GI50 (HL-60): 2.42 µM (inactive)
GI50 (HOP-62): 22.6 µM (inactive)
GI50 (HOP-92): 5.46 µM (inactive)
GI50 (HT-29): 3.59 µM (inactive)
GI50 (Hs-578T): 43.3 µM (inactive)
GI50 (IGROV-1): 7.05 µM (inactive)
GI50 (K562): 2.18 µM (inactive)
GI50 (KM12): 13.9 µM (inactive)
GI50 (LOX IMVI): 0.471 µM (active)
GI50 (M14): 1.56 µM (inactive)
GI50 (MCF7): 10.2 µM (inactive)
GI50 (MDA-MB-231): 5.69 µM (inactive)
GI50 (MDA-MB-435): 2.76 µM (inactive)
GI50 (MDA-N): 4.95 µM (inactive)
GI50 (MOLT-4): 0.303 µM (active)
GI50 (Malme-3M): 2.59 µM (inactive)
GI50 (NCI-H226): 2 µM (inactive)
GI50 (NCI-H23): 3.18 µM (inactive)
GI50 (NCI-H460): 19.5 µM (inactive)
GI50 (NCI-H522): 0.625 µM (active)
GI50 (NCI/ADR-RES): 12.1 µM (inactive)
GI50 (OVCAR-3): 14.4 µM (inactive)
GI50 (OVCAR-4): 16.1 µM (inactive)
GI50 (OVCAR-5): 12.7 µM (inactive)
GI50 (OVCAR-8): 10.4 µM (inactive)
GI50 (PC-3): 8.99 µM (inactive)
GI50 (RPMI-8226): 3.03 µM (inactive)
GI50 (RXF 393): 8.41 µM (inactive)
GI50 (SF-268): 11.1 µM (inactive)
GI50 (SF-295): 25.1 µM (inactive)
GI50 (SF-539): 16 µM (inactive)
GI50 (SK-MEL-28): 16.5 µM (inactive)
GI50 (SK-MEL-5): 5.81 µM (inactive)
GI50 (SK-OV-3): 10.5 µM (inactive)
GI50 (SN12C): 3.1 µM (inactive)
GI50 (SNB-19): 15.7 µM (inactive)
GI50 (SNB-75): 0.589 µM (active)
GI50 (SR): 0.157 µM (active)
GI50 (SW-620): 3.63 µM (inactive)
GI50 (T47D): 19.4 µM (inactive)
GI50 (TK-10): 12.1 µM (inactive)
GI50 (U-251): 9.27 µM (inactive)
GI50 (UACC-257): 13.9 µM (inactive)
GI50 (UACC-62): 15.3 µM (inactive)
GI50 (UO-31): 18.5 µM (inactive)

CC1(C)CC(=O)C2=C(C1)NC1=C(C2)C(=O)CC(C)(C)C1
GI50 (786-0): > 100 µM (inactive)
GI50 (A498): > 100 µM (inactive)
GI50 (A549): > 100 µM (inactive)
GI50 (ACHN): > 100 µM (inactive)
GI50 (BT-549): > 100 µM (inactive)
GI50 (CAKI-1): > 100 µM (inactive)
GI50 (CCRF-CEM): > 100 µM (inactive)
GI50 (COLO 205): > 100 µM (inactive)
GI50 (DU-145): > 100 µM (inactive)
GI50 (EKVX): > 100 µM (inactive)
GI50 (HCC 2998): > 100 µM (inactive)
GI50 (HCT-116): > 100 µM (inactive)
GI50 (HCT-15): > 100 µM
GI50 (HL-60): > 100 µM (inactive)
GI50 (HOP-62): > 100 µM (inactive)
GI50 (HT-29): > 100 µM (inactive)
GI50 (Hs-578T): > 100 µM (inactive)
GI50 (IGROV-1): > 100 µM (inactive)
GI50 (K562): > 100 µM (inactive)
GI50 (KM12): > 100 µM (inactive)
GI50 (LOX IMVI): > 100 µM (inactive)
GI50 (M14): > 100 µM (inactive)
GI50 (MCF7): > 100 µM (inactive)
GI50 (MDA-MB-231): > 100 µM (inactive)
GI50 (MDA-MB-435): > 100 µM (inactive)
GI50 (MDA-N): > 100 µM (inactive)
GI50 (MOLT-4): > 100 µM (inactive)
GI50 (Malme-3M): > 100 µM (inactive)
GI50 (NCI-H226): > 100 µM (inactive)
GI50 (NCI-H23): > 100 µM (inactive)
GI50 (NCI-H460): > 100 µM (inactive)
GI50 (NCI/ADR-RES): > 100 µM (inactive)
GI50 (OVCAR-3): > 100 µM (inactive)
GI50 (OVCAR-4): > 100 µM (inactive)
GI50 (OVCAR-5): > 100 µM (inactive)
GI50 (OVCAR-8): > 100 µM (inactive)
GI50 (PC-3): > 100 µM (inactive)
GI50 (RPMI-8226): > 100 µM (inactive)
GI50 (RXF 393): > 100 µM (inactive)
GI50 (SF-268): > 100 µM (inactive)
GI50 (SF-295): > 100 µM (inactive)
GI50 (SF-539): > 100 µM (inactive)
GI50 (SK-MEL-28): > 100 µM (inactive)
GI50 (SK-MEL-5): > 100 µM (inactive)
GI50 (SK-OV-3): > 100 µM (inactive)
GI50 (SN12C): > 100 µM (inactive)
GI50 (SNB-19): > 100 µM (inactive)
GI50 (SNB-75): > 100 µM (inactive)
GI50 (SR): > 100 µM (inactive)
GI50 (SW-620): > 100 µM (inactive)
GI50 (TK-10): > 100 µM (inactive)
GI50 (U-251): > 100 µM (inactive)
GI50 (UACC-257): > 100 µM (inactive)
GI50 (UACC-62): > 100 µM (inactive)
GI50 (UO-31): > 100 µM (inactive)
